Results as given in patent US12655116B2, “Substituted isophthalic acid diamides” (Bayer Aktiengesellschaft, priority 2020, dated 2026).

Key:
ABUTH [1] = assay: Pre-emergence herbicidal action against ABUTH; assay type: in vivo, Abutilon theophrasti; conditions: Abutilon theophrasti, 504 h
Procedure, shortened: (§1)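 Visual rating at 3 weeks vs untreated pots; 0–100% scale, 100% = plants died. Treatment: aqueous WP/EC spray onto covering soil, 600–800 l/ha, 0.2% wetter, seeds in sandy loam.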

ALOMY [2] = assay: Pre-emergence herbicidal action against ALOMY; assay type: in vivo, Alopecurus myosuroides; conditions: Alopecurus myosuroides, 504 h, pre-emergence
Procedure, shortened: as §1

AMARE [3] = assay: Pre-emergence herbicidal action against AMARE; assay type: in vivo, Amaranthus retroflexus; conditions: Amaranthus retroflexus, 504 h, scored visually after 3 weeks vs untreated controls, 100% = plants have died, 0% = like control plants
Procedure, shortened: as §1

AVEFA [4] = assay: Pre-emergence herbicidal action against AVEFA; assay type: in vivo, Avena fatua; conditions: Avena fatua, 504 h; 80 g/ha, pre-emergence
Procedure, shortened: as §1

ECHCG [5] = assay: Pre-emergence herbicidal action against ECHCG; assay type: in vivo, Echinochloa crus-galli; conditions: Echinochloa crus-galli, 504 h, 80 g/ha
Procedure, shortened: as §1

HORMU [6] = assay: Pre-emergence herbicidal action against HORMU; assay type: in vivo, Hordeum murinum; conditions: Hordeum murinum, 504 h; 80 g/ha, pre-emergence
Procedure, shortened: as §1

MATIN [7] = assay: Pre-emergence herbicidal action against MATIN; assay type: in vivo, Matricaria inodora; conditions: Tripleurospermum inodorum, 504 h
Procedure, shortened: as §1

PHBPU [8] = assay: Pre-emergence herbicidal action against PHBPU; assay type: in vivo, Pharbitis purpurea; conditions: Ipomoea purpurea, 504 h, dosage 80 g/ha
Procedure, shortened: as §1

POLCO = assay: Pre-emergence herbicidal action against POLCO; assay type: in vivo, Polygonum convolvulus; conditions: Fallopia convolvulus, 504 h, dosage 80 g/ha
Procedure, shortened: as §1

SETVI [9] = assay: Pre-emergence herbicidal action against SETVI; assay type: in vivo, Setaria viridis; conditions: Setaria viridis, 504 h
Procedure, shortened: as §1

STEME [10] = assay: Pre-emergence herbicidal action against STEME; assay type: in vivo, Stellaria media; conditions: Stellaria media, 504 h
Procedure, shortened: as §1

VIOTR [11] = assay: Pre-emergence herbicidal action against VIOTR; assay type: in vivo, Viola tricolor; conditions: Viola tricolor, 504 h
Procedure, shortened: as §1

DIGSA [12] = assay: Pre-emergence herbicidal action against DIGSA; assay type: in vivo, Digitaria sanguinalis; conditions: Digitaria sanguinalis, 504 h
Procedure, shortened: as §1

ABUTH [13] = assay: Post-emergence herbicidal action against ABUTH; assay type: in vivo, Abutilon theophrasti; conditions: Abutilon theophrasti, 504 h, dosage 20 g/ha, visual assessment about 3 weeks after treatment vs untreated controls
Procedure, shortened: (§2)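 Weeds in sandy loam soil received a post-emergence spray at the one-leaf stage. Compounds were applied as WP or EC in water, 600 to 800 l/ha, with 0.2% wetting agent. Activity in % was judged visually after roughly 3 weeks against untreated plants.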

ALOMY [14] = assay: Post-emergence herbicidal action against ALOMY; assay type: in vivo, Alopecurus myosuroides; conditions: Alopecurus myosuroides, 504 h, dosage 20 g/ha, visual assessment about 3 weeks after treatment vs untreated controls
Procedure, shortened: as §2

AMARE [15] = assay: Post-emergence herbicidal action against AMARE; assay type: in vivo, Amaranthus retroflexus; conditions: Amaranthus retroflexus, 504 h, 20 g/ha, visual assessment about 3 weeks after treatment, 100% = plants have died, 0% = like control plants
Procedure, shortened: as §2

AVEFA [16] = assay: Post-emergence herbicidal action against AVEFA; assay type: in vivo, Avena fatua; conditions: Avena fatua, 504 h, visual assessment about 3 weeks after treatment, 100% = plants have died, 0% = like control plants
Procedure, shortened: as §2

ECHCG [17] = assay: Post-emergence herbicidal action against ECHCG; assay type: in vivo, Echinochloa crus-galli; conditions: Echinochloa crus-galli, 504 h, dosage 20 g/ha
Procedure, shortened: as §2

HORMU [18] = assay: Post-emergence herbicidal action against HORMU; assay type: in vivo, Hordeum murinum; conditions: Hordeum murinum, 504 h, dosage 20 g/ha
Experimental: Seeds of monocotyledonous and dicotyledonous weed and crop plants are laid out in sandy loam soil in wood-fiber pots, covered with soil and cultivated in a greenhouse under good growth conditions. 2 to 3 weeks after sowing, the test plants are treated at the one-leaf stage. The compounds of the invention, formulated in the form of wettable powders (WP) or as emulsion concentrates (EC), are then sprayed onto the green parts of the plants in the form of an aqueous suspension or emulsion at a water application rate equivalent to 600 to 800 l/ha, with addition of 0.2% wetting agent. After the test plants have been left to stand in the greenhouse under optimal growth conditions for about 3 weeks, the action of the preparations is assessed visually in comparison to untreated controls (herbicidal action in percent (%): 100% activity=the plants have died, 0% activity=like control plants). […] The tables below illustrate, in an illustrative manner, the post-emergence herbicidal action of the compounds of the invention, the herbicidal activity being stated in percent.

MATIN [19] = assay: Post-emergence herbicidal action against MATIN; assay type: in vivo, Matricaria inodora; conditions: Tripleurospermum inodorum, 504 h
Procedure, shortened: as §2

PHBPU [20] = assay: Post-emergence herbicidal action against PHBPU; assay type: in vivo, Pharbitis purpurea; conditions: Ipomoea purpurea, 504 h, dosage 20 g/ha
Procedure, shortened: as §2

SETVI [21] = assay: Post-emergence herbicidal action against SETVI; assay type: in vivo, Setaria viridis; conditions: Setaria viridis, 504 h
Procedure, shortened: as §2

STEME [22] = assay: Post-emergence herbicidal action against STEME; assay type: in vivo, Stellaria media; conditions: Stellaria media, 504 h
Procedure, shortened: as §2

VIOTR [23] = assay: Post-emergence herbicidal action against VIOTR; assay type: in vivo, Viola tricolor; conditions: Viola tricolor, 504 h
Procedure, shortened: as §2

DIGSA [24] = assay: Post-emergence herbicidal action against DIGSA; assay type: in vivo, Digitaria sanguinalis; conditions: Digitaria sanguinalis, 504 h
Procedure, shortened: as §2

[25] = 80 g/ha, scored visually after 3 weeks vs untreated controls (100% = plants have died, 0% = like control plants)

CCn1nnnc1NC(=O)c1ccc(C(F)(F)F)c(C(=O)NC2CC2)c1Cl [Example 2-131]
pest or weed control at 80 g/ha (ABUTH [1]; [25]): 100% | pest or weed control at 20 g/ha (ABUTH [1]; dosage 20 g/ha, scored visually after 3 weeks vs untreated controls, 100% = plants have died, 0% = like control plants, read-out: Pre-emergence action against ABUTH (herbicidal activity in percent)): 100% | pest or weed control at 80 g/ha (ALOMY [2]; [25]): 100% | pest or weed control at 20 g/ha (ALOMY [2]; 20 g/ha, scored visually after 3 weeks, 100% = plants have died, 0% = like control plants): 90% | pest or weed control at 20 g/ha (AMARE [3]; 20 g/ha): 100% | pest or weed control at 80 g/ha (AMARE [3]; 80 g/ha): 100% | pest or weed control at 80 g/ha (AVEFA [4]): 100% | pest or weed control at 80 g/ha (ECHCG [5]): 100% | pest or weed control at 80 g/ha (HORMU [6]): 80% | pest or weed control at 20 g/ha (MATIN [7]; dosage 20 g/ha): 90% | pest or weed control at 80 g/ha (MATIN [7]; dosage 80 g/ha): 100% | pest or weed control at 80 g/ha (PHBPU [8]): 80% | pest or weed control at 80 g/ha (POLCO): 90% | pest or weed control at 20 g/ha (SETVI [9]; dosage 20 g/ha): 80% | pest or weed control at 80 g/ha (SETVI [9]; dosage 80 g/ha): 100% | pest or weed control at 20 g/ha (STEME [10]; dosage 20 g/ha): 100% | pest or weed control at 80 g/ha (STEME [10]; dosage 80 g/ha): 100% | pest or weed control at 20 g/ha (VIOTR [11]; dosage 20 g/ha): 100% | pest or weed control at 80 g/ha (VIOTR [11]; dosage 80 g/ha): 100% | pest or weed control at 20 g/ha (DIGSA [12]; dosage 20 g/ha): 90% | pest or weed control at 80 g/ha (DIGSA [12]; dosage 80 g/ha): 100% | pest or weed control at 20 g/ha (ABUTH [13]): 90% | pest or weed control at 20 g/ha (ALOMY [14]): 80% | pest or weed control at 20 g/ha (AMARE [15]): 100% | pest or weed control at 5 g/ha (AVEFA [16]; 5 g/ha): 80% | pest or weed control at 20 g/ha (AVEFA [16]; 20 g/ha): 80% | pest or weed control at 20 g/ha (ECHCG [17]): 80% | pest or weed control at 20 g/ha (HORMU [18]): 100% | pest or weed control at 5 g/ha (MATIN [19]; dosage 5 g/ha): 90% | pest or weed control at 20 g/ha (MATIN [19]; dosage 20 g/ha): 100% | pest or weed control at 20 g/ha (PHBPU [20]): 80% | pest or weed control at 5 g/ha (SETVI [21]; dosage 5 g/ha): 90% | pest or weed control at 20 g/ha (SETVI [21]; dosage 20 g/ha): 100% | pest or weed control at 20 g/ha (STEME [22]; 20 g/ha): 90% | pest or weed control at 5 g/ha (STEME [22]; dosage 5 g/ha): 90% | pest or weed control at 5 g/ha (VIOTR [23]; 5 g/ha): 100% | pest or weed control at 20 g/ha (VIOTR [23]; 20 g/ha): 100% | pest or weed control at 5 g/ha (DIGSA [24]; 5 g/ha): 90% | pest or weed control at 20 g/ha (DIGSA [24]; 20 g/ha): 90%
